Assays:
[1] = viability of peripheral blood lymphocytes with or without PHA, trypan blue exclusion; type: cell-based, human; settings: human, peripheral blood lymphocytes; for viability at 2200 µM: 2.2 mM; for viability at 6700 µM: 6.7 mM; for viability at 20000 µM: 20 mM
Protocol: (§1) Viability was determined using the trypan blue exclusion method well known in the art. […] The assays were conducted in duplicate wherein peripheral blood lymphocytes were isolated from two separate individuals, and then treated with or without phytohemagglutinin in the presence of various concentrations of the appropriate succinylacetone derivative.

[2] = system: peripheral blood lymphocytes; assay: as above; type: cell-based, human
Protocol: as §1

[3] = system: human lymphocytes; assay: tritiated thymidine uptake in primary mixed lymphocyte reaction; type: cell-based; settings: for incorporation of tritiated thymidine: Table IV
Excerpt: The in vitro mixed lymphocyte assay described below is presently employed in the clinical setting as an indicator of histocompatibility, and is premised on the transformation of resting genetically dissimilar lymphocytes into cells which synthesize DNA and undergo proliferation.
The mixed lymphocyte reaction assay can be carried out by techniques well known to those skilled in the art. L. Hudson and F. C. Huy, Practical Immunology, p. 260, Blackwell Scientific Publications (1976). Briefly this consists of isolating lymphocytes from human peripheral blood by standard density gradient centrifugation techniques from two separate individuals. Approximately 2×10^5 lymphocytes of each individual are combined to yield a total of 4×10^5 lymphocytes per culture. All procedures are carried out under sterile conditions, and the lymphocytes are isolated and kept in physiologically compatible solutions. To the mixture of lymphocytes is added a desired amount of an appropriate succinylacetone derivative, and after different times an aliquot of the mixture is removed and assayed for IL-2 or IFN-γ, or ^3 H-T is measured.
As mentioned above, one measure of an immune response as reflected in a mixed lymphocyte assay is the stimulation of DNA synthesis, and a concomitant increase in cell number. Thus, to further ascertain the immunosuppressive activity of succinylacetonyl-proline-NH-PEG, its effect on inhibition of thymocyte growth, as detected by uptake of tritiated thymidine, was assayed.

[4] = system: human lymphoid cells; assay: tritiated thymidine uptake in secondary mixed lymphocyte reaction; type: cell-based; settings: 2°-MLR; for inhibition at 740 µM / inhibition at 2200 µM / inhibition at 6700 µM / inhibition at 20000 µM: Homo sapiens, Lymphocyte
Protocol: In addition to testing the immunosuppressive activities of succinylacetone derivatives in a primary mixed lymphocyte reaction, or a phytohemagglutinin stimulation assay, two of the derivatives, succinylacetone methyl ester and methyl 4-acetyl-5-oxohexanoate, were tested in a secondary mixed lymphocyte reaction assay. The secondary mixed lymphocyte assays differs from the primary mixed lymphocyte reaction assays in that they employ many more primed responder cells that are responsive to the primary stimulating cells. The presence of such responsive cells is a reflection of immunological memory in an ongoing immunological response. […] These cells are then used in the secondary mixed lymphocyte reaction. It is worth noting that because a secondary mixed lymphocyte reaction is greatly enriched for responsive cells, fewer cells can be used in the secondary assay.
It will be appreciated that described therein is a method for carrying out secondary lymphocyte reactions using mouse cells, however such methods are generally applicable to performing secondary mixed lymphocyte reactions using human cells with modifications that are well known to those skilled in the art. […] The assays were conducted in duplicate involving lymphoid cells isolated from two individuals.

COC(=O)CCC(C(C)=O)C(C)=O [Methyl 4-Acetyl-5-Oxohexanoate, methyl 4-acetyl-5-oxohexanoate]
viability at 3 µM ([1]; first individual, (+) PHA): 100%
viability at 9 µM ([1]; first individual, (+) PHA): 100%
viability at 27 µM ([1]; first individual, (+) PHA): 100%
viability at 81 µM ([1]; first individual, (+) PHA): 100%
viability at 244 µM ([1]; first individual, (+) PHA): 100%
viability at 733 µM ([1]; first individual, (+) PHA): 100%
viability at 2200 µM ([1]; first individual, (+) PHA): 100%
viability at 6700 µM ([1]; first individual, (+) PHA): 100%
viability at 20000 µM ([1]; first individual, (+) PHA): 100%
viability at 3 µM ([1]; first individual, (-) PHA): 100%
viability at 9 µM ([1]; first individual, (-) PHA): 100%
viability at 27 µM ([1]; first individual, (-) PHA): 100%
viability at 81 µM ([1]; first individual, (-) PHA): 100%
viability at 244 µM ([1]; first individual, (-) PHA): 100%
viability at 733 µM ([1]; first individual, (-) PHA): 100%
viability at 2200 µM ([1]; first individual, (-) PHA): 100%
viability at 6700 µM ([1]; first individual, (-) PHA): 100%
viability at 20000 µM ([1]; first individual, (-) PHA): 100%
viability at 3 µM ([1]; second individual, (+) PHA): 100%
viability at 9 µM ([1]; second individual, (+) PHA): 100%
viability at 27 µM ([1]; second individual, (+) PHA): 100%
viability at 81 µM ([1]; second individual, (+) PHA): 100%
viability at 244 µM ([1]; second individual, (+) PHA): 100%
viability at 733 µM ([1]; second individual, (+) PHA): 100%
viability at 2200 µM ([1]; second individual, (+) PHA): 100%
viability at 6700 µM ([1]; second individual, (+) PHA): 100%
viability at 20000 µM ([1]; second individual, (+) PHA): 100%
viability at 3 µM ([1]; second individual, (-) PHA): 100%
viability at 9 µM ([1]; second individual, (-) PHA): 100%
viability at 27 µM ([1]; second individual, (-) PHA): 100%
viability at 81 µM ([1]; second individual, (-) PHA): 100%
viability at 244 µM ([1]; second individual, (-) PHA): 100%
viability at 733 µM ([1]; second individual, (-) PHA): 100%
viability at 2200 µM ([1]; second individual, (-) PHA): 100%
viability at 6700 µM ([1]; second individual, (-) PHA): 100%
viability at 20000 µM ([1]; second individual, (-) PHA): 100%
toxicity ([2]; as high as 20 mM): no toxicity
Cells/ml ([2]; first individual, (+) PHA, 3 μM): 0.45 X 10^6 Cells/ml
Cells/ml ([2]; first individual, (+) PHA, 9 μM): 0.47 X 10^6 Cells/ml
Cells/ml ([2]; first individual, (+) PHA, 27 μM): 0.46 X 10^6 Cells/ml
Cells/ml ([2]; first individual, (+) PHA, 81 μM): 0.38 X 10^6 Cells/ml
Cells/ml ([2]; first individual, (+) PHA, 244 μM): 0.44 X 10^6 Cells/ml
Cells/ml ([2]; first individual, (+) PHA, 733 μM): 0.38 X 10^6 Cells/ml
Cells/ml ([2]; first individual, (+) PHA, 2.2 mM): 0.49 X 10^6 Cells/ml
Cells/ml ([2]; first individual, (+) PHA, 6.7 mM): 0.46 X 10^6 Cells/ml
Cells/ml ([2]; first individual, (+) PHA, 20 mM): 0.49 X 10^6 Cells/ml
Cells/ml ([2]; first individual, (-) PHA, 3 μM): 0.39 X 10^6 Cells/ml
Cells/ml ([2]; first individual, (-) PHA, 9 μM): 0.55 X 10^6 Cells/ml
Cells/ml ([2]; first individual, (-) PHA, 27 μM): 0.44 X 10^6 Cells/ml
Cells/ml ([2]; first individual, (-) PHA, 81 μM): 0.42 X 10^6 Cells/ml
Cells/ml ([2]; first individual, (-) PHA, 244 μM): 0.40 X 10^6 Cells/ml
Cells/ml ([2]; first individual, (-) PHA, 733 μM): 0.37 X 10^6 Cells/ml
Cells/ml ([2]; first individual, (-) PHA, 2.2 mM): 0.57 X 10^6 Cells/ml
Cells/ml ([2]; first individual, (-) PHA, 6.7 mM): 0.57 X 10^6 Cells/ml
Cells/ml ([2]; first individual, (-) PHA, 20 mM): 0.5 X 10^6 Cells/ml
Cells/ml ([2]; second individual, (+) PHA, 3 μM): 0.40 X 10^6 Cells/ml
Cells/ml ([2]; second individual, (+) PHA, 9 μM): 0.50 X 10^6 Cells/ml
Cells/ml ([2]; second individual, (+) PHA, 27 μM): 0.50 X 10^6 Cells/ml
Cells/ml ([2]; second individual, (+) PHA, 81 μM): 0.40 X 10^6 Cells/ml
Cells/ml ([2]; second individual, (+) PHA, 244 μM): 0.54 X 10^6 Cells/ml
Cells/ml ([2]; second individual, (+) PHA, 733 μM): 0.40 X 10^6 Cells/ml
Cells/ml ([2]; second individual, (+) PHA, 2.2 mM): 0.50 X 10^6 Cells/ml
Cells/ml ([2]; second individual, (+) PHA, 6.7 mM): 0.50 X 10^6 Cells/ml
Cells/ml ([2]; second individual, (+) PHA, 20 mM): 0.55 X 10^6 Cells/ml
Cells/ml ([2]; second individual, (-) PHA, 3 μM): 0.44 X 10^6 Cells/ml
Cells/ml ([2]; second individual, (-) PHA, 9 μM): 0.52 X 10^6 Cells/ml
Cells/ml ([2]; second individual, (-) PHA, 27 μM): 0.50 X 10^6 Cells/ml
Cells/ml ([2]; second individual, (-) PHA, 81 μM): 0.46 X 10^6 Cells/ml
Cells/ml ([2]; second individual, (-) PHA, 244 μM): 0.5 X 10^6 Cells/ml
Cells/ml ([2]; second individual, (-) PHA, 733 μM): 0.41 X 10^6 Cells/ml
Cells/ml ([2]; second individual, (-) PHA, 2.2 mM): 0.54 X 10^6 Cells/ml
Cells/ml ([2]; second individual, (-) PHA, 6.7 mM): 0.6 X 10^6 Cells/ml
Cells/ml ([2]; second individual, (-) PHA, 20 mM): 0.5 X 10^6 Cells/ml
IC50 ([3]; Homo sapiens, Lymphocyte, primary MLR, read-out: concentration causing 50% inhibition in thymidine uptake): ~2200 µM
incorporation of tritiated thymidine ([3]; Exp I, 3 μM): 74259
incorporation of tritiated thymidine ([3]; Exp I, 9 μM): 77627
incorporation of tritiated thymidine ([3]; Exp I, 27 μM): 77634
incorporation of tritiated thymidine ([3]; Exp I, 81 μM): 81881
incorporation of tritiated thymidine ([3]; Exp I, 244 μM): 48284
incorporation of tritiated thymidine ([3]; Exp I, 733 μM): 67787
incorporation of tritiated thymidine ([3]; Exp I, 2.2 mM): 29389
incorporation of tritiated thymidine ([3]; Exp I, 6.7 mM): 135
incorporation of tritiated thymidine ([3]; Exp I, 20 mM): 163
incorporation of tritiated thymidine ([3]; Exp II, 3 μM): 114713
incorporation of tritiated thymidine ([3]; Exp II, 9 μM): 117109
incorporation of tritiated thymidine ([3]; Exp II, 27 μM): 112463
incorporation of tritiated thymidine ([3]; Exp II, 81 μM): 113054
incorporation of tritiated thymidine ([3]; Exp II, 244 μM): 122672
incorporation of tritiated thymidine ([3]; Exp II, 733 μM): 113732
incorporation of tritiated thymidine ([3]; Exp II, 2.2 mM): 84363
incorporation of tritiated thymidine ([3]; Exp II, 6.7 mM): 21280
incorporation of tritiated thymidine ([3]; Exp II, 20 mM): 109
CPM ([4]; Exp I, 247 μM): 73805 CPM
CPM ([4]; Exp I, 740 μM): 61568 CPM
CPM ([4]; Exp I, 2.2 mM): 1995 CPM
CPM ([4]; Exp I, 6.7 mM): 112 CPM
CPM ([4]; Exp I, 20 mM): 76 CPM
CPM ([4]; Exp II, 247 μM): 86893 CPM
CPM ([4]; Exp II, 740 μM): 88958 CPM
CPM ([4]; Exp II, 2.2 mM): 43264 CPM
CPM ([4]; Exp II, 6.7 mM): 4402 CPM
CPM ([4]; Exp II, 20 mM): 134 CPM
inhibition at 740 µM ([4]; Exp I, 740 μM): 23.6%
inhibition at 2200 µM ([4]; Exp I, 2.2 mM): 97.5%
inhibition at 6700 µM ([4]; Exp I, 6.7 mM): 9.99%
inhibition at 20000 µM ([4]; Exp I, 20 mM): 9.99%
inhibition at 740 µM ([4]; Exp II, 740 μM): 4.8%
inhibition at 2200 µM ([4]; Exp II, 2.2 mM): 53.7%
inhibition at 6700 µM ([4]; Exp II, 6.7 mM): 95.3%
inhibition at 20000 µM ([4]; Exp II, 20 mM): 9.99%
